Data reported in patent publication US20260209260A1, “VECTORIZED NHC IRIDIUM(III) COMPLEXES AND USE THEREOF IN PHOTODYNAMIC THERAPY AND/OR DIAGNOSTIC” (CENTRE NATIONAL DE LA RECHERCHE SCIENTIFIQUE, priority 2022, published 2026).
Several values for one entry are separate records, joined by “and”; a condition that tells them apart may be missing. Equal entries are not always repeated. Where two headings read alike, the source gives them in different places.

What was measured:
[1] = Lipophilicity: octanol-water partition coefficient, shake-flask method
Outline: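 Octanol and water mutually pre-saturated for 24 h; compound ([…] stock in aqueous phase) partitioned against equal volume n-octanol, mixed 15 min, phases separated by centrifugation.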

[2] = UV/Vis absorption spectra; assay type: physicochemical; conditions: room temperature, air-saturated CH2Cl2 or CH2Cl2/MeOH (1:1), 50 μM; ε in brackets, sh = shoulder
Procedure: UV/Vis absorption spectra were recorded at RT on solutions contained in quartz cuvettes (optical pathlength 1 cm, Hellma®) with a PerkinElmer® UV/VIS/NIR spectrophotometer Lambda 950 and a PerkinElmer® detector UV/VIS/NIR Accessory 2D Detector Module.

[3] = Luminescence emission spectra and quantum yield; assay type: physicochemical; conditions: room temperature; reference POPOP in hexane or rhodamine B in ethanol
Outline: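 Spectrofluorometric fluorescence/phosphorescence emission spectra of the iridium(III) complexes recorded in CH2Cl2 at room temperature. Quantum yields by the Demas–Crosby relative method on solutions at RT, from integrated emission band areas versus a reference standard of known yield, corrected for solvent refractive index.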

[4] = Emission lifetime measurement; assay type: physicochemical
Outline: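 Emission lifetimes measured by time-correlated single-photon counting (0.5 ns time resolution), excitation from a D2 lamp and a 405 nm pulsed diode laser. Estimated error 5% on lifetime.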

[5] = tested on: MC3T3 osteoblast cells (non-tumor); assay: Cell viability assay (MTT), dark and blue light; assay type: cell-based, Murine; conditions: for Photosensitizing index (PI) MC3T3: dark vs blue light 458 nm
Outline: (§1)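 Cells seeded at 5,000–10,000/well, attached overnight, then exposed to complexes in DMSO (final 0.1% v/v) for 72 h in the dark, or for 8 h dark followed by 10 min irradiation and dark incubation to 72 h. MTT added 3–4 h at 37 °C; formazan dissolved in DMSO, read at 570 nm.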

[6] = tested on: NIH-3T3 fibroblast cells (non-tumor); assay: Cell viability assay (MTT), dark and blue light; assay type: cell-based, Murine; conditions: for Photosensitizing index (PI) NIH-3T3: dark vs blue light 458 nm
Outline: as §1

A549 lung cancer cells = assay: Cell viability assay (MTT), dark and blue light; assay type: cell-based, Human; conditions: for SI (vs MC3T3) A549 Blue / SI (vs NIH-3T3) A549 Blue: blue light 458 nm; for Photosensitizing index (PI) A549: dark vs blue light 458 nm
Procedure: (§2) Cells were grown in humidified incubators at 37° C. in 5% CO2. Murine MC3T3 osteoblast and NIH-3T3 fibroblast cells-used as non-tumor cell models-were cultured in a-MEM medium and DMEM medium supplemented with 10% fetal bovine serum (FBS) and 1% Penicillin/Streptomycin (P/S) antibiotics, respectively. Human T24 bladder, MGHU3 bladder, Scaber bladder, A549 lung, MCF7 breast, MiaPaCa2 pancreas cancer cells were cultured in DMEM medium supplemented with 10% FBS and 1% P/S antibiotics. […] Human Hela cervix and HepG2 liver cancer cells were cultured EMEM medium supplemented with 10% FBS and 1% P/S antibiotics.
(§3) MTT reagent (3-(4,5-dimethylthiazol-2-yl)-2,5-diphenyltetrazolium bromide) was used to determine cell death as originally described by Mosmann. Briefly, cells were seeded from 5,000 to 10,000 cells/well in 24-well plates (1 mL) depending on the cell type and allowed to attach overnight. The complexes were prepared in DMSO. The concentration of the complexes was calculated based on the elemental composition of the complexes determined by the elemental analyses. All cell viability experiments were carried out with a fixed concentration of 0.1% (v/v) DMSO. After 72 h of treatment, cells were incubated at 37° C. and 5% CO2 with 25 μL of MTT solution (5 mg/ml; Sigma-Aldrich) in 24-well plates for 3 to 4 h. After solubilization with 500 μL of DMSO, formazan was quantified spectrophotometrically with a microplate reader at 570 nm absorbance (ClarioSTAR, BMG LabTech). […] All the results were calculated from data obtained in at least three independent experiments performed in triplicate.
(§4) Two sets of experiments were conducted in parallel for each complex to be studied:
(§5) 1. The cells were incubated with the different complexes (in the dark) for 72 h.
(§6) 2. The cells were incubated for 8 h with the different complexes (in the dark), then irradiated for 10 min, followed by an incubation in the dark up to 72 h.

[7] = tested on: ASPC-1 pancreas cancer cells; assay: Cell viability assay (MTT), dark and blue light; assay type: cell-based, Human; conditions: for SI (vs MC3T3) ASPC-1 Blue / SI (vs NIH-3T3) ASPC-1 Blue: blue light 458 nm; for Photosensitizing index (PI) ASPC-1: dark vs blue light 458 nm
Procedure: as §2, §3, §4, §5, §6

[8] = tested on: MiaPaCa2 pancreas cancer cells; assay: Cell viability assay (MTT), dark and blue light; assay type: cell-based, Human; conditions: for SI (vs MC3T3) MiaPaCa2 Blue / SI (vs NIH-3T3) MiaPaCa2 Blue: blue light 458 nm; for Photosensitizing index (PI) MiaPaCa2: dark vs blue light 458 nm
Procedure: as §2, §3, §4, §5, §6

T24 bladder cancer cells = assay: Cell viability assay (MTT), dark and blue light; assay type: cell-based, Human; conditions: for SI (vs MC3T3) T24 Blue / SI (vs NIH-3T3) T24 Blue: blue light 458 nm; for Photosensitizing index (PI) T24: dark vs blue light 458 nm
Procedure: as §2, §3, §4, §5, §6

[9] = tested on: cancer cells (all tumor cell lines tested); assay: Cell viability assay (MTT), summary over the cancer cell lines tested; assay type: cell-based, Human
Procedure: as §2, §3, §4, §5, §6

[10] = POPOP in hexane, rhodamine B in ethanol; cited from earlier work
[11] = 8 h in the dark, blue light 458 nm 10 min, then dark up to 72 h, read-out: GI50 MC3T3 Blue
[12] = in the dark, 72 h, read-out: GI50 MC3T3 Dark
[13] = 8 h in the dark, blue light 458 nm 10 min, then dark up to 72 h, read-out: GI50 NIH-3T3 Blue
[14] = in the dark, 72 h, read-out: GI50 NIH-3T3 Dark
[15] = 8 h in the dark, blue light 458 nm 10 min, then dark up to 72 h, read-out: GI50 A549 Blue
[16] = in the dark, 72 h, read-out: GI50 A549 Dark
[17] = 8 h in the dark, blue light 458 nm 10 min, then dark up to 72 h, read-out: GI50 ASPC-1 Blue
[18] = in the dark, 72 h, read-out: GI50 ASPC-1 Dark
[19] = 8 h in the dark, blue light 458 nm 10 min, then dark up to 72 h, read-out: GI50 MiaPaCa2 Blue
[20] = in the dark, 72 h, read-out: GI50 MiaPaCa2 Dark
[21] = 8 h in the dark, blue light 458 nm 10 min, then dark up to 72 h, read-out: GI50 T24 Blue
[22] = in the dark, 72 h, read-out: GI50 T24 Dark

| Structure (SMILES) | λmax (nm) ε (M^−1 · cm^−1) [2] | GI50 [5, 11] [nM] | Photosensitizing index (PI) MC3T3 [5] | GI50 [5, 12] [nM] | GI50 [6, 13] [nM] | Photosensitizing index (PI) NIH-3T3 [6] | GI50 [6, 14] [nM] | GI50 (A549 lung cancer cells; [15]) [nM] | SI (vs MC3T3) A549 Blue (A549 lung cancer cells) | SI (vs NIH-3T3) A549 Blue (A549 lung cancer cells) | SI (vs MC3T3) A549 Dark (A549 lung cancer cells) | SI (vs NIH-3T3) A549 Dark (A549 lung cancer cells) | Photosensitizing index (PI) A549 (A549 lung cancer cells) | GI50 (A549 lung cancer cells; [16]) [nM] | GI50 [7, 17] [nM] | SI (vs MC3T3) ASPC-1 Blue [7] | SI (vs NIH-3T3) ASPC-1 Blue [7] | SI (vs MC3T3) ASPC-1 Dark [7] | SI (vs NIH-3T3) ASPC-1 Dark [7] | Photosensitizing index (PI) ASPC-1 [7] | further results |
| --- | --- | --- | --- | --- | --- | --- | --- | --- | --- | --- | --- | --- | --- | --- | --- | --- | --- | --- | --- | --- | --- |
| COC(=O)c1ccc2[n+](c1)[Ir-3]13([c]4ccccc4-2)([c]2ccccc2-c2ccc(C(=O)OC)c[n+]21)[c]1n(CCCNC(=O)c2ccccc2SC/C=C(\C)CC/C=C(\C)CCC=C(C)C)cc[n+]1-c1cccc[n+]13.F[P-](F)(F)(F)(F)F [II-e] | 310 (sh) (24540), 363 (sh) (5975), 432 (5280) nm (M^−1 · cm^−1) | 10100 | 1.1 | 11000 | 5200 | 2.3 | 12000 | 690 | 14.6 | 7.5 | 2.9 | 3.2 | 5.5 | 3800 | 1300 | 7.9 | 4.1 | 2.2 | 2.3 | 4.0 | Log P ([1]; n-octanol/water, shake-flask, mean of at least three determinations): 1.30 ± 0.02; ΦP emission phosphorescence quantum yield [3]: 4.6%; τ1 emission lifetime [4]: 182 ns; GI50 [7, 18]: 5100 nM; GI50 [8, 19]: 180 nM; SI (vs MC3T3) MiaPaCa2 Blue [8]: 57.7; SI (vs NIH-3T3) MiaPaCa2 Blue [8]: 29.7; SI (vs MC3T3) MiaPaCa2 Dark [8]: 5.6; SI (vs NIH-3T3) MiaPaCa2 Dark [8]: 6.1; Photosensitizing index (PI) MiaPaCa2 [8]: 11.2; GI50 [8, 20]: 2000 nM; GI50 (T24 bladder cancer cells; [21]): 260 nM; SI (vs MC3T3) T24 Blue (T24 bladder cancer cells): 38.8; SI (vs NIH-3T3) T24 Blue (T24 bladder cancer cells): 20.0; SI (vs MC3T3) T24 Dark (T24 bladder cancer cells): 5.0; SI (vs NIH-3T3) T24 Dark (T24 bladder cancer cells): 5.5; Photosensitizing index (PI) T24 (T24 bladder cancer cells): 8.6; GI50 (T24 bladder cancer cells; [22]): 2200 nM; SI values, mean over cancer cells, dark [9]: 4.1 fold; SI values, median over cancer cells, dark [9]: 4.1 fold |
| CC(C)=CCC/C(C)=C/CC/C(C)=C/CSc1ccccc1C(=O)NCCCn1cc[n+]2[c]1[Ir-3]13([c]4ccccc4-c4ccc5ccccc5[n+]41)([c]1ccccc1-c1ccc4ccccc4[n+]13)[n+]1ccccc1-2.F[P-](F)(F)(F)(F)F [II-g] | 333 (20560), 438 (4735) nm (M^−1 · cm^−1) | 5900 | 1.0 | 5800 | 5100 | 0.8 | 4300 | 390 | 15.2 | 13.2 | 12.9 | 9.6 | 1.2 | 450 | 470 | 12.6 | 10.9 | 7.8 | 5.8 | 1.6 | Log P [1]: 1.95 ± 0.05; GI50 [7, 18]: 740 nM; GI50 [8, 19]: 250 nM; SI (vs MC3T3) MiaPaCa2 Blue [8]: 24.0; SI (vs NIH-3T3) MiaPaCa2 Blue [8]: 20.7; SI (vs MC3T3) MiaPaCa2 Dark [8]: 14.4; SI (vs NIH-3T3) MiaPaCa2 Dark [8]: 10.7; Photosensitizing index (PI) MiaPaCa2 [8]: 1.6; GI50 [8, 20]: 400 nM; GI50 (T24 bladder cancer cells; [21]): 640 nM and 650 nM; SI (vs MC3T3) T24 Blue (T24 bladder cancer cells): 9.2; SI (vs NIH-3T3) T24 Blue (T24 bladder cancer cells): 8.0; SI (vs MC3T3) T24 Dark (T24 bladder cancer cells): 12.3; SI (vs NIH-3T3) T24 Dark (T24 bladder cancer cells): 9.1; Photosensitizing index (PI) T24 (T24 bladder cancer cells): 0.7; GI50 (T24 bladder cancer cells; [22]): 470 nM; selectivity for cancer cells over non-tumor cells, in words [9]: highest selectivity toward cancer cells compared to non-tumor cells; SI values, mean over cancer cells, dark [9]: 10.2 fold; SI values, median over cancer cells, dark [9]: 10.3 fold |
| CCN(CC)c1ccc2c(-c3ccccc3C(=O)O)c3ccc(=[N+](CC)CC)cc-3oc2c1.[Cl-] [rhodamine B] |  |  |  |  |  |  |  |  |  |  |  |  |  |  |  |  |  |  |  |  | quantum yield of the reference standard [10]: 65% |
